From US20250375450A1, “SMARCA2/4 INHIBITION AS A STRATEGY TO TREAT TUMORS THAT HARBOR ABERRANT BAF ASSEMBLIES” (BOARD OF REGENTS, THE UNIVERSITY OF TEXAS SYSTEM, priority 2022, published 2025)
Entries after “also recorded” stand apart in the source; their conditions may differ.

How the values were obtained:
RH4 = test: Cell proliferation assay and IC50 measurement (PrestoBlue); format: cell-based; conditions: PrestoBlue cell viability
Protocol: (§1) FIG. 10A-C show representative data illustrating that AT-301 kills Ewing's, RMS, GBM, AML, and other cancer cells. Cell lines were treated with serial dilutions (2×) of AT-301, and IC50 values of each cell line were determined using PrestoBlue dye for cell viability following manufacturer's protocol (Invitrogen, A13261). See also Table 3.
(§2) Jurkat, Molt-4, RH4, RH30, BT40, GBM2, ES3, ES6, ES7, HC827, H1975, H2030 cells: RPMI 1640, 10% FBS, Penicillin (100 units/mL) and streptomycin (100 μg/mL) in the presence of 5% CO2.
(§3) Proliferation of adherent cells was determined on the IncuCyte live-cell imaging system (Essen BioScience). Cells were seeded on clear bottom 96 well plates at a seeding density of 2000 cells/well. Cells were allowed to attach overnight after which the medium was replaced with fresh medium containing serial dilutions (2×) of the compound or DMSO control. Percent confluence was calculated by the IncuCyte software from four different images per well from at least three replicate wells. For non-adherent cells, the 96-well plates were coated with poly-L-lysine before seeding to facilitate cell adhesion. At the end of the assay, dose-dependent cell viability was determined by staining the cells with PrestoBlue (Invitrogen, A13261) as per manufacturer's instructions and IC50 was calculated (FIG. 10).

H2030 = test: as above; format: cell-based; conditions: Homo sapiens, NCI-H2030, PrestoBlue cell viability
Protocol: as §1, §2, §3

ES7 = test: as above; format: cell-based; conditions: Homo sapiens, PrestoBlue cell viability
Protocol: as §1, §2, §3

ES6 = test: as above; format: cell-based; conditions: PrestoBlue cell viability
Protocol: as §1, §2, §3

RH30 = test: as above; format: cell-based; conditions: PrestoBlue cell viability
Protocol: as §1, §2, §3

ES3 = test: as above; format: cell-based; conditions: PrestoBlue cell viability
Protocol: as §1, §2, §3

GBM2 = test: as above; format: cell-based; conditions: PrestoBlue cell viability
Protocol: as §1, §2, §3

SMARCAL1 = SMARCAL1 (Homo sapiens, UniProt Q9NZC9); test: Activity of other SWI/SNF ATPases not part of the BAF complex; format: biochemical; conditions: SWI/SNF ATPase not part of the BAF complex
RH41 cells = test: Cell cycle analysis, propidium iodide/RNase flow cytometry; format: cell-based; conditions: 7.5 μM AT-301, 24 hours
Protocol: Referring to FIG. 11A and FIG. 11B, RH4 (FIG. 11A) and ES3 (FIG. 11B) cells were treated with the indicated concentrations of BAF-X-1 or DMSO in triplicate and apoptosis was detected using the IncuCyte Caspase 3/7 green dye (Sartorius). Brightfield and green fluorescence images were captured every 2 hours from 4 fields per well on the IncuCyte live cell imager. The proportion of caspase positive (green) cells relative to % confluence of the well was calculated on the IncuCyte software and plotted against time. Referring to FIG. 11C and FIG. 11D, RH41 cells were treated with 7.5 μM AT-301 (FIG. 11D) or DMSO (FIG. 11C) for 24 hours, harvested with accutase, washed, and fixed in 70% ethanol. They were subsequently stained with propidium iodide/RNase and fluorescence was analyzed on BD flow cytometer. Resulting data was analyzed using FlowJo software.
To test the alterations in cell cycle upon AT-301 treatment, RH41 cells were cultured in 12 well plates, detached using Accutase (Corning, 25-058-Cl), washed with PBS, and fixed in 70% ethanol. For staining, the fixed cells were washed with PBS and stained with FxCycle PI/RNase staining solution (Invitrogen, F10797) as per the supplier's directions. Fluorescence intensity of stained cells was measured on (BD system) and analyzed using FlowJo.

ovarian cancer cells = test: Growth/killing of ovarian cancer cells; format: cell-based; conditions: dose-dependent
Protocol: as §3
Referring to FIG. 10A, AT-301 kills a variety of cancer cells (brain tumors, rhabdomyosarcoma, nonsmall cell lung cancer, leukemia, and Ewing's Sarcoma. We also tested whether AT-301 can kill cells representing gynecological cancers (ovarian and endometrial cancer). As shown in FIG. 10B-C, AT-301 kills a variety of ovarian and endometrial cancer cells.

DAOY = test: Cell proliferation assay and IC50 measurement (PrestoBlue); format: cell-based; conditions: Homo sapiens, PrestoBlue cell viability
Protocol: as §1
(§4) DAOY, D556 cells: EMEM, 10% FBS, Penicillin (100 units/mL) and streptomycin (100 μg/mL) in the presence of 5% CO2.
as §3

D556 = test: as above; format: cell-based; conditions: PrestoBlue cell viability
Protocol: as §1, §4, §3

[1] = test system: FLI1 expression in ES7 cells; test: Immunoblot of oncogenic transcription factor levels; format: cell-based; conditions: 4 and 12 hrs of treatment
From the text: (§5) FIG. 12A-D show representative data illustrating that the assembly of BAF complex is perturbed by AT-301 inhibitor without perturbing oncogenic fusion protein levels. Referring to FIG. 12A and FIG. 12B, immunoblots of RH41 (FIG. 12A) and ES7 (FIG. 12B) cells after 4 and 12 hrs of treatment with AT-301 or DMSO. FOXO1 and FLI1 expression remains unchanged upon AT-301 treatment. Referring to FIG. 12C and FIG. 12D, gel filtration chromatography of ES3 (FIG. 12C) and RH41 (FIG. 12D) cell nuclear lysates after BAF-X-1 treatment are shown. […]
(§6) Next, whether the levels of oncogenic transcription factors in RH41 and ES7 cells change upon treatment with AT-301 was tested. Harvested cells were lysed in NP-40 lysis buffer (Thermo Scientific, J60766) supplemented with protease and phosphatase inhibitor (Halt Protease and phosphatase inhibitor cocktail (Thermo Scientific). Total protein was quantified using Bradford assay (Biorad), and 20 μg of it was denatured and separated on pre-cast tris-acetate or tris-glycine gels (Invitrogen). The protein was then transferred to nitrocellulose membranes (Cytiva) and subsequently probed using primary and secondary antibodies. The signal was detected using Clarity and Clarity Max ECL substrates (Biorad) and imaged on Biorad ChemiDoc).

[2] = test system: FOXO1 expression in RH41 cells; test: as above; format: cell-based; conditions: 4 and 12 hrs of treatment
From the text: as §5, §6

Chain of SMARCAL1 (Q9NZC9 whole entry): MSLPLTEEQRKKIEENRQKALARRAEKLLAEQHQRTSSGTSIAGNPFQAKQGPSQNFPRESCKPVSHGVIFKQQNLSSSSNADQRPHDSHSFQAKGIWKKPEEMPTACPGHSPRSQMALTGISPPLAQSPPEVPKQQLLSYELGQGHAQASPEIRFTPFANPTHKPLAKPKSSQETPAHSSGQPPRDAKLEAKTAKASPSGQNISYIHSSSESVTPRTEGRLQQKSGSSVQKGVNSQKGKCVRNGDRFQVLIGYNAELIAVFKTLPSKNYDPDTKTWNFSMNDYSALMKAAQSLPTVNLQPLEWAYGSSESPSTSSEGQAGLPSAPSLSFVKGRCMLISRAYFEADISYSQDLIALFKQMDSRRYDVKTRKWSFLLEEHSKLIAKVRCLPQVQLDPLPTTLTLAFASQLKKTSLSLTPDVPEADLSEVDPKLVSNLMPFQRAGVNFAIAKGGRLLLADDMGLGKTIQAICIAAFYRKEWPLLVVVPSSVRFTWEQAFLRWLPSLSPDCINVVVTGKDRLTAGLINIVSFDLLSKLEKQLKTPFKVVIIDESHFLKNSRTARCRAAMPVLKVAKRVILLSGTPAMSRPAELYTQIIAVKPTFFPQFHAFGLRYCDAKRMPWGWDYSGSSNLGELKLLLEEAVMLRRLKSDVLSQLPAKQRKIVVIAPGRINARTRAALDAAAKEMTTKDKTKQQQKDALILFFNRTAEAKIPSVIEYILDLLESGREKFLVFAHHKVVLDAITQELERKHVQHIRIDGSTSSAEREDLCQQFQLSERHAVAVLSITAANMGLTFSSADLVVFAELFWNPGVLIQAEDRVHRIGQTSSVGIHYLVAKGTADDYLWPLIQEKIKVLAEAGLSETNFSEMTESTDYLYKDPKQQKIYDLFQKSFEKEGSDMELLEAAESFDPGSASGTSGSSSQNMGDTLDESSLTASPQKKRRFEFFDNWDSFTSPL

IC50 (H2030): 6.26 µM | Inhibition of activity of SMARCAL1 (SMARCAL1): fails to inhibit
SMILES: Clc1ccc(CNc2nc(NC3CCCC3)nc3ccccc23)cc1Cl [AT-301, N^2-cyclopentyl-N^4-(3,4-dichlorobenzyl)quinazoline-2,4-diamine]
IC50 (RH4): 6.54 µM | IC50 (ES7): 4.83 µM | IC50 (ES6): 2.84 µM | IC50 (RH30): 2.96 µM | IC50 (ES3): 5.21 µM | IC50 (GBM2): 3.54 µM | Cell cycle alteration (RH41 cells): arrested in GO-Gi phase | Growth/killing of ovarian cancer cells (ovarian cancer cells): kills; also recorded: inhibits the growth | IC50 (DAOY): 4.19 µM | IC50 (D556): 3.02 µM | Expression of oncogenic transcription factor (FLI1) [1]: does not alter the expression | Expression of oncogenic transcription factor (FOXO1) [2]: does not alter the expression
